In EP4420661B1, “SMALL MOLECULES TARGETING GLYCOPROTEIN VI AS ANTIPLATELET AGENTS FOR USE IN THE PREVENTION AND/OR TREATMENT OF THROMBOSIS AND ASSOCIATED PATHOLOGIES” (Universidade de Santiago de Compostela, priority 2023, dated 2024):

What was measured:
human platelets [1] = assay: platelet aggregation assay, CRP-induced; type: cell-based; conditions: Homo sapiens, Platelet, CRP 1 µg/mL
Experimental: Platelet aggregation assays were carried out to assess the potency of the active compounds as previously described [Barrachina et al. (2021)].
Briefly, human platelets from at least =7 healthy individuals were isolated and washed. Then, the suspension was incubated with the compounds at 10 µM at 37 ∘C for 4 min in a Chrono-log® 490-X aggregometer (Chrono-log Corporation, Havertown, PA, USA). After that, platelets were stimulated with the agonist CRP at 1 µg/mL for 5 min.

human platelets [2] = assay: platelet spreading assay on CRP (phalloidin staining, confocal microscopy); type: cell-based; conditions: 10µM; CRP 1µg/mL; Figure 4
Experimental: Platelet spreading experiments were carried out to assess the potency of the compounds of formula (I), exemplified by compounds (If)and (Ih).
Platelets can change from a rounded, non-adherent form to adhere and flatten shape when exposed to ligands. This "spreading" effect can lead to the formation of cytoskeletal protein rearrangement. Platelet adhesion and extent of spreading (area covered) can be quantified.
Briefly, human platelets from healthy individuals were isolated and washed. Then, platelets were incubated with the inhibitors at 10µM for 5 min at room temperature and then for 45 min at 37°C in coverslips coated with 1µg/mL of agonist (CRP).
The images of platelet shape given by phalloidin staining were acquired by confocal fluorescence microscopy and the area analyzed by ImageJ [Onselaer et al., (2020)].

[3] = plasmatic stability, rat plasma; type: in vitro ADME; conditions: for Plasmatic stability: Rat plasma
Experimental: (§1) Rat, human, mouse and dog plasma pooled from healthy donors extracted in citrate tubes was employed in the assay.
(§2) […] Then 300µl Acetonitrile were added for precipitating plasma protein, and the plate was centrifuged at 4000 g for 60 min at 4°C.
(§3) Supernatant was taken and analyzed by UPLC/MS/MS for sample quantification. Stationary phase: Reverse phase ACQUITY BEH C18 1.7µm 2.1x50mm (Waters) Mobile phase: 0.1% Formic acid water/0.1% formic acid in acetonitrile Gradient: Table 4: UPLC gradient / Plasmatic stability assay
(§4) The chromatographic equipment employed was an UPLC QSM Waters Acquity. Compound concentrations were calculated from the MS peak areas.

[4] = plasmatic stability, mouse plasma; type: in vitro ADME; parameters: unit not given beside the values
Experimental: as §1, §2, §3, §4

[5] = metabolic stability, human microsomes; type: in vitro ADME
Experimental: Microsomes from Tebu-bio Xenotech were employed in the assay, having a content of 20 mg/ml of protein. The following quantities were added to each well of a 96-well microplate. Table 6: Metabolic stability assay.
Plates were incubated at 37°C and 75 µL samples were taken at 0, 10, 20, 40 and 60 minutes.
Samples were transferred to a microplate and 75 µl Acetonitrile + IS(Rolipram) were added for inactivating the microsomes, and 30 µl of H2O with 0.5% formic acid for improving the chromatographic conditions and kept at 4°C. When all the samples were taken the plate was centrifuged at […] for 30 min at 15°C. Stationary phase: ACQUITY BEH C18 1.7µm 2.1x50mm (Waters) Mobile phase: A: 0.1% formic; B: acetonitrile+0.1% formic acid Gradient: Table 6: UPLC gradient / Metabolic stability assay
Metabolic stability was calculated from the logarithm of the remaining compound at each of the times evaluated.

[6] = plasma protein binding, Rapid Equilibrium Dialysis (RED), mouse; type: in vitro ADME; conditions: 4h at 37°C, (*) low recovery for (If)
Experimental: (§5) Plasma from Seralab was employed in the assay and was carried out by employing Rapid Equilibrium Dialysis (RED) from Thermo Scientific.
(§6) The compounds were dissolved at 5 µM in plasma and added to the corresponding insert of the RED device. Dialysis buffer was added to the corresponding insert of the RED device. Plate was incubated for 4h at 37°C.
(§7) After the incubation period 50 µL aliquots of each chamber were transferred to empty vials. 50 µL of dialysis buffer were added to the plasma samples and 50 µL of plasma were added to the buffer samples. 300 µL of acetonitrile were added to all the samples and centrifuged at 4000 rpm 100 µL aliquots of the supernatants were transferred to a LC analysis plate. Samples were analyzed in a UPLC/MS/MS. Stationary phase: Acquity UPLC® BEHC18 1,7 µm (2.1 mm x 50 mm) (Waters). Gradient: A (H2O + 0.1% Formic acid); B (ACN + 0.1% Formic acid); Flow: 0.6mL/min Table 8: UPLC gradient / Protein binding assay
(§8) The chromatographic equipment employed was an ACQUITY UPLC / Xevo TQD System. Compound concentrations were calculated from the MS peak areas. Table 9: Plasma protein binding of the compounds of formula (I) in rat, mice, dogs and humans / (*) low recovery

Plasma protein = assay: as above; type: in vitro ADME; conditions: 5 µM, 4h at 37°C, (*) low recovery for (If)
Experimental: as §5, §6, §7, §8

Structure (SMILES): O=C(Cc1ccc2c(c1)OCCO2)Nc1nc(-c2ccc3c(c2)CCC(=O)N3)cs1 [Compound (If)]
- inhibition at 10 µM (human platelets [1]): 70 ± 19%
- platelet spreading on CRP (in words) (human platelets [2]): inhibition of platelet spreading on CRP
- Plasmatic stability ([3]; 10µM, t 0 min): 100.0
- Plasmatic stability ([3]; 10µM, t 60 min): 105.5
- Plasmatic stability ([3]; 10µM, t 120 min): 105.4
- Plasmatic stability ([3]; 10µM, t 360 min): 81.6
- Plasmatic stability ([3]; 100µM, t 0 min): 100.0
- Plasmatic stability ([3]; 100µM, t 60 min): 88.8
- Plasmatic stability ([3]; 100µM, t 120 min): 95.1
- Plasmatic stability ([3]; 100µM, t 360 min): 65.7
- plasmatic stability (in words) ([3]; rats): high plasmatic stability
- Plasmatic stability ([4]; 10µM, t 0 min): 100.0
- Plasmatic stability ([4]; 10µM, t 60 min): 67.8
- Plasmatic stability ([4]; 10µM, t 120 min): 41.6
- Plasmatic stability ([4]; 10µM, t 360 min): 5.6
- Plasmatic stability ([4]; 100µM, t 0 min): 100.0
- Plasmatic stability ([4]; 100µM, t 60 min): 77.6
- Plasmatic stability ([4]; 100µM, t 120 min): 57.5
- Plasmatic stability ([4]; 100µM, t 360 min): 9.6
- half-life [5]: 46.9 min
- microsomal CLint [5]: 10.1 µL/min/mg
- % remanent (*) ([5]; (*) sampling time 60 min): 41.21%
- fraction unbound at 4 h, 5 µM [6]: 0.0046
- Unbound fraction (Plasma protein): 0.46%
